Results: PMC3221499, “A New Flavonoid C-Glycoside from Celtis australis L. and Celtis occidentalis L. Leaves and Potential Antioxidant and Cytotoxic Activities” (Scientia Pharmaceutica, 2011)

Columns and labels:
[1] = DPPH radical scavenging activity; conditions: samples at 100 μg/mL; 30 min at 30 °C; mean ± SE, n=3
Experimental: The ability of the extracts to scavenge free radicals was determined according to the method of Hosny, et al 2002 [24]. In a 96-well plate, 10 μL of each sample or standard dissolved in ethanol (100 μg/mL) was added to 190 μL of 316 μM/mL DPPH solution. A blank was prepared using ethanol. After incubation at 30 °C for 30 min, the absorbance of each solution was measured at 517 nm. DL-α-tocopherol and BHT were used as positive controls. […] All experiments were carried out in triplicate.

[2] = system: FeSO4/H2O2-stimulated lipid peroxidation (MDA production) in rat tissue homogenates; assay: FeSO4/H2O2-stimulated lipid peroxidation (MDA production, TBARS) in rat tissue homogenates; assay type: biochemical; conditions: 200 μg/mL, mean ± SE, n=3; for Inhibition (%) Brain: rat brain homogenate; for Inhibition (%) Heart: rat heart homogenate; for Inhibition (%) Liver: rat liver homogenate
Experimental: During aerobic incubation of the tissue homogenates, MDA released reacts with thiobarbituric acid (TBA) to give a pink colour. The capability of the samples to inhibit MDA formation is used as a measure of their antioxidant activity. […] The results were expressed as nanomoles of MDA equivalents per milligram of protein of rat (brain, heart and liver) homogenates. All measurements were done in triplicate. The capability to inhibit MDA formation was calculated using the following equation: Inhibition effects (%)=1-MDA in tissue homogenate with test extracts/MDA in tissue homogenate without test extracts×100

SMILES | DPPH % inhibition [1] | Inhibition (%) Brain [2] | Inhibition (%) Heart [2] | Inhibition (%) Liver [2]
Cc1cc(C(C)(C)C)c(O)c(C(C)(C)C)c1 [BHT, butylated hydroxytoluene] | 55.3 ± 1.50% | 52.48 ± 1.72% | 43.23 ± 1.65% | 53.20 ± 1.65%
Cc1c(C)c2c(c(C)c1O)CC[C@@](C)(CCC[C@H](C)CCC[C@H](C)CCCC(C)C)O2 (racemic) [DL-α-tocopherol] | 66.5 ± 2.75% | 62.90 ± 2.18% | 58.70 ± 1.80% | 71.10 ± 2.25%
